# In patent publication US5288706A, “Medicament for prevention and remedy of diseases of the pancreas and others” (Mitsui Toatsu Chemicals, Incorporated, priority 1987, dated 1994):
# Read-outs that look alike come from different tables or passages of the source. Non-standard residues stand in square brackets, D forms with d. Residues, ends and D or L forms follow the SMILES beside them. pGlu = O=C1CC[C@@H](C(=O)O)N1
# How the values were obtained:
# Wister rats = conditions: rat, in vivo, sc, 30 mg/kg
# Method: (§1) Thus, the medicament of the present invention is a safe medicament of extremely low toxicity and can be administered for a long period of time.
# No toxicity was observed when 30 mg/kg of FTS as the effective ingredient wa subcutaneously administered for consecutive 21 days to a group of ten Wister rats of 5 weeks old.
# ddy male mice = conditions: mouse, in vivo, sc
# Method: as §1
# No toxicity was observed when 50 mg/kg and 100 mg/kg of FTS as the effective ingredient were subcutaneously administered for consecutive 14 days to a group of five ddy male mice of 5 weeks old.
smiles,measurement,setting,value
"C[C@H](NC(=O)[C@@H]1CCC(=O)N1)C(=O)N[C@@H](CCCCN)C(=O)N[C@@H](CO)C(=O)N[C@@H](CCC(N)=O)C(=O)NCC(=O)NCC(=O)N[C@@H](CO)C(=O)N[C@@H](CC(N)=O)C(=O)O [FTS, pGlu-Ala-Lys-Ser-Gln-Gly-Gly-Ser-Asn] ([pGlu]AKSQGGSN-OH)",toxicity,Wister rats,No toxicity
same,"toxicity (external behavior observation, biochemical diagnosis of sera, pathological anatomy)",Wister rats,no abnormal symptom
same,toxicity,ddy male mice; 50 mg/kg,No toxicity
same,toxicity,ddy male mice; 100 mg/kg,No toxicity
